Assay results published in patent publication US20070207984A1, “Cyclohexylamino Benzene, Pyridine, and Pyridazine Derivatives” (priority 2006, published 2007).

Tested on: PC-3 cell proliferation
Test: Cell proliferation assay (WST-1), PC-3 cells
Type: cell-based
Conditions: Homo sapiens, WST-1 optical density at 450 nm, growth vs DMSO (100%) and 10 μM Actinomycin D (0%), read-out: inhibitory activity against PC-3 cell proliferation (IC50 range)
Experimental: A panel of cancer cell lines was obtained from the DCTP Tumor Repository, National Cancer Institute (Frederick, Md.) or ATCC (Rockville, Md.). Cell cultures were maintained in Hyclone RPMI 1640 medium (Logan, Utah) supplemented with 10% fetal bovine serum and 20 mM HEPES buffer, final pH 7.2, at 37° C. with a 5% CO2 atmosphere. Cultures were maintained at sub-confluent densities. Human umbilical vein endothelial cells (HUVEC) were purchased from Clonetics, a division of Cambrex (Walkersville, Md.). Cultures were established from cryopreserved stocks using Clonetics EGM-2 medium supplemented with 20 mM HEPES, final pH 7.2, at 37° C. with a 5% CO2 atmosphere.
For proliferation assays, cells were seeded with the appropriate medium into 96 well plates at 1,000-2,500 cells per well, depending on the cell line, and were incubated overnight. The following day, test compound, DMSO solution (negative control), or Actinomycin D (positive control) was added to the appropriate wells as 10× concentrated stocks prepared in phosphate buffered saline. The cell plates were then incubated for an additional 2-5 days, depending on the cell line, to allow proliferation to occur. To measure cell density, 50 μL of WST-1 solution (Roche Applied Science, IN) diluted 1:5 in phosphate buffered saline was added to each well, and the cells incubated for an additional 1-5 hrs., again depending on the cell line. Optical density was determined for each well at […] using a Tecan GeniosPro plate reader (RTP, NC). The percentage of cell growth was determined by comparing the cell growth in the presence of test compounds to the cells treated with DMSO vehicle (control, 100% growth) and cells treated with Actinomycin D (10 μM, 0% growth).
Immediately after the WST-1 determination, the medium was removed from the PC-3, NCI-H460 and HUVEC cell lines, and the plates stored at −80° C. Using these assay plates, relative amounts of DNA in each well were determined using the Cyquant DNA assay kit from […] (Eugene, Oreg.) following the manufacturer's directions. Results for each compound treatment were compared to DMSO vehicle control (100%) and 10 μM Actinomycin D treated cells (0%).
Several exemplary compounds useful in the methods of the invention are listed below.

SMILES	IC50 [nM]
CC1(C)CC(=O)c2c(C(F)(F)F)nn(-c3ccc(C(N)=O)c(NC4CCC(OC(=O)[C@@H](N)CCCCN)CC4)c3)c2C1 (stereo partly drawn)	< 500
CC1(C)CC(=O)c2c(C(F)F)nn(-c3ccc(C(N)=O)c(N[C@H]4CC[C@H](O)CC4)c3)c2C1 [drawing 85]	< 500
Cc1nn(-c2ccc(C#N)c(Br)c2)c2c1C(=O)CC(C)(C)C2 [drawing 89]	5000 to 50000

More lines, now with the values ahead:

IC50 [nM]	SMILES
500 to 5000	Cc1nn(-c2ccc(C(N)=O)c(NC3CCC(OC(=O)CCN)CC3)c2)c2c1C(=O)CC(C)(C)C2 (stereo not drawn)
< 500	CC1(C)CC(=O)c2c(C(F)(F)F)nn(-c3ccc(C(N)=O)c(NC4CCC(OC(=O)CCNC(=O)[C@@H](N)CCCN)CC4)c3)c2C1 (stereo partly drawn)
< 500	Cc1nn(-c2ccc(C(N)=O)c(NC3CCC(OC(=O)CCNC(=O)OC(C)(C)C)CC3)c2)c2c1C(=O)CC(C)(C)C2 (stereo not drawn) [drawing 88]

Tested on: HSP-90 (heat shock protein 90)
Test: Determination of affinity for HSP-90 (elution from purine affinity column)
Type: binding
Set-up: key: A stands for very high; B for high; C for moderate
Conditions: purine affinity column loaded with organ tissue proteins; eluted with 20μM, 100 μM, and 500 μM of test compound; densitometry
Experimental: Affinity of test compounds for HSP-90 was determined as follows: Protein mixtures obtained from a variety of organ tissues (for example: spleen, liver and lung) were reversibly bound to a purine affinity column to capture purine-binding proteins, especially HSP-90. The purine affinity column was washed several times, and then eluted with 20μM, 100 μM, and 500 μM of test compound. Compounds of Formula I elute HP-90 in a dose-dependent manner vs. a control elution using dimethylsulfoxide. The elution profile of Formula I compounds was determined by 1-dimensional SDS polyacrylamide gel electrophoresis. Gels were stained with a fluorescent stain such as sypro ruby (a highly sensitive fluorescent protein stain that can readily detect less than 1 fmol of total protein, i.e., less than 0.04 ng for a 40 kDa protein) or silver nitrate. The gels were imaged using a standard flat bed gel imager and the amount of protein estimated by densitometry. The percent of HSP-90 protein eluted from the column at each concentration was determined and IC50 values were calculated from these estimates. The identity of a band containing HSP-90 was determined by protein sequencing using mass spectroscopy.
Compounds of the invention are inhibitors of HSP-90 (heat shock protein 90). Several exemplary compounds useful in the methods of the invention are listed below.

SMILES	relative binding affinity to HSP-90
CC1(C)CC(=O)c2c(C(F)(F)F)nn(-c3ccc(C(N)=O)c(NC4CCC(OC(=O)[C@@H](N)CCCCN)CC4)c3)c2C1.CS(=O)(=O)O.CS(=O)(=O)O (stereo partly drawn)	A
CC1(C)CC(=O)c2c(C(F)F)nn(-c3ccc(C(N)=O)c(N[C@H]4CC[C@H](O)CC4)c3)c2C1 [drawing 91]	A
Cc1nn(-c2ccc(C#N)c(Br)c2)c2c1C(=O)CC(C)(C)C2 [drawing 95]	C

Results, then the compound that gave them:

relative binding affinity to HSP-90	SMILES
A	CS(=O)(=O)O.Cc1nn(-c2ccc(C(N)=O)c(NC3CCC(OC(=O)CCN)CC3)c2)c2c1C(=O)CC(C)(C)C2 (stereo not drawn)
A	CC1(C)CC(=O)c2c(C(F)(F)F)nn(-c3ccc(C(N)=O)c(NC4CCC(OC(=O)CCNC(=O)[C@@H](N)CCCN)CC4)c3)c2C1.CS(=O)(=O)O.CS(=O)(=O)O (stereo partly drawn)
A	Cc1nn(-c2ccc(C(N)=O)c(NC3CCC(OC(=O)CCNC(=O)OC(C)(C)C)CC3)c2)c2c1C(=O)CC(C)(C)C2 (stereo not drawn) [drawing 94]
